Source: ChEMBL document CHEMBL1687828, “Extremely drug-resistant Citrobacter freundii isolate producing NDM-1 and other carbapenemases identified in a patient returning from India” (2011)

How the values were obtained:
Citrobacter freundii [1] = test: Antibacterial activity against drug-resistant Citrobacter freundii isolate producing metallo-beta-lactamase NDM-1 with carbapenemase activity isolated from urine culture of cerebral vascular malformation patient; assay type: functional
Citrobacter freundii [2] = test: Antibacterial activity against drug-resistant Citrobacter freundii isolate producing metallo-beta-lactamase NDM-1 with carbapenemase activity isolated from urine culture of cerebral vascular malformation patient by Etest; assay type: functional, organism-based

| Molecule | MIC (Citrobacter freundii [1]) [µg/mL] | MIC (Citrobacter freundii [2]) [µg/mL] |
| --- | --- | --- |
| C[C@@H](O)[C@H]1C(=O)N2C(C(=O)O)=C(S[C@@H]3CN[C@H](C(=O)Nc4cccc(C(=O)O)c4)C3)[C@H](C)[C@H]12 [ERTAPENEM] | > 32 | – |
| C[C@@H](O)[C@H]1C(=O)N2C(C(=O)O)=C(SCCNC=N)C[C@H]12 [IMIPENEM ANHYDROUS] | > 32 | – |
| C[C@@H](O)[C@H]1C(=O)N2C(C(=O)O)=C(S[C@@H]3CN[C@H](C(=O)N(C)C)C3)[C@H](C)[C@H]12 [MEROPENEM] | > 32 | – |
| COLISTIN | – | 0.5 |
